Measurements taken from US20020137929A1, “1 - (3-heterocyclylphenyl) isothiourea, -isourea, -guanidine and -amidine herbicidal agents” (Intellectual Property Department, BASF Aktiengesellschaft, priority 1998, published 2002).

Key:
AMBEL (Ragweed, Common) = test: Preemergence herbicidal evaluation; type: in vivo, Ambrosia artemisifolia; conditions: preemergence, rated 4-5 weeks after treatment, 0-9 scale
In short: (§1)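 Visual 0-9 rating vs control (stand, vigor, malformation, size, chlorosis, overall appearance), scored 4-5 wk after spraying. Seeded soil cups were treated preemergence with compound in aqueous acetone, ~0.0156-0.500 kg/ha equivalent.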

CYPSE (Flatsedge) = test: Preemergence weed control under flooded paddy conditions; type: in vivo, Cyperus serotinus; conditions: rated 3-4 weeks after treatment
In short: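 Seeds or propagules sown in silt loam kept flooded 1.5-3 cm; compounds in 50/50 acetone/water pipetted into flood water at about 0.0313 to 0.500 kg/ha. Greenhouse; visual 0-9 rating versus untreated control 3-4 weeks after treatment.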

ABUTH (Velvetleaf) [1] = test: Postemergence herbicidal evaluation; type: in vivo, Abutilon theophrasti; conditions: postemergence
In short: (§2)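 Visual 0–9 rating versus control (stand, vigor, malformation, size, chlorosis, overall appearance), taken four to five weeks post-spray. Two-week-old seedlings received roughly 0.0156–0.500 kg/ha active in acetone/water (50/50) with 0.5% TWEEN 20 via nozzle at 40 psi.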

ZEAMX (Corn, Field) = test: Postemergence herbicidal evaluation; type: in vivo, Zea mays; conditions: postemergence
In short: as §2

[2] = system: IPOHE (Morningglory, Ivyleaf); test: Preemergence herbicidal evaluation; type: in vivo, Ipomoea hederacea; conditions: preemergence, rated 4-5 weeks after treatment, 0-9 scale
In short: as §1

CYPIR (Rice Flatsedge) = test: Postemergence weed control under flooded paddy conditions; type: in vivo, Cyperus iria; conditions: postemergence weeds, rated 3 to 4 weeks after treatment
In short: (§3)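 Herbicidal effect is judged by eye on a 0–9 scale versus control, 3–4 weeks after dosing. Dosing is into flood water kept 1.5–3 cm over the soil, at about 0.0313–0.500 kg/ha in aqueous/acetone 50/50 v/v, on 3–5 cm weeds and 1.5–2.5-leaf rice seedlings.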

CASOB (Sicklepod) = test: Preemergence herbicidal evaluation; type: in vivo, Cassia obtusifolia; conditions: preemergence, rated 4-5 weeks after treatment, 0-9 scale
In short: as §1

SETVI (Foxtail, Green) = test: Postemergence herbicidal evaluation; type: in vivo, Setaria viridis; conditions: postemergence
In short: as §2

ECHCG (Barnyardgrass) = test: Preemergence herbicidal evaluation; type: in vivo, Echinochloa crus-galli; conditions: preemergence, rated 4-5 weeks after treatment, 0-9 scale
In short: as §1

[3] = system: ECHORC (Watergrass (Calif.)); test: Postemergence weed control under flooded paddy conditions; type: in vivo, Echinochloa oryzoides; conditions: postemergence weeds, rated 3 to 4 weeks after treatment
In short: as §3

[4] = system: IPOHE (Morningglory, Ivyleaf); test: Postemergence herbicidal evaluation; type: in vivo, Ipomoea hederacea; conditions: postemergence
In short: as §2

[5] = system: GLXMAW (Soybean, Williams); test: Postemergence herbicidal evaluation; type: in vivo, Glycine max, (L.) Merr. cv Williams; conditions: postemergence
In short: as §2

ABUTH (Velvetleaf) [6] = test: Preemergence herbicidal evaluation; type: in vivo, Abutilon theophrasti; conditions: preemergence, rated 4-5 weeks after treatment, 0-9 scale
In short: as §1

[7] = system: ECHORC (Watergrass (Calif.)); test: Preemergence weed control under flooded paddy conditions; type: in vivo, Echinochloa oryzoides; conditions: rated 3-4 weeks after treatment
In short: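 Visual injury scored 0-9 against control three to four weeks post-treatment, greenhouse-grown. Application: acetone/water (50/50) solutions dosed directly into flood water (1.5-3 cm over silt loam, planted top 0.5 cm), roughly 0.0313 to 0.500 kg/ha active ingredient.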

CN1C(=O)C(CC(=O)OCCF)SC1=Nc1cc(-n2c(=O)cc(C(F)(F)F)n(C)c2=O)c(F)cc1Cl (stereo not shown) [Compound 93, 2-Fluoroethyl 2-{{2-chloro-5-[3,6-dihydro-3-methyl-2,6-dioxo-4-(trifluoromethyl)-1(2H)-pyrimidinyl]-4-fluorophenyl}imino}-3-methyl-4-oxo-5-thiazolidineacetate]
AMBEL rating (AMBEL (Ragweed, Common); 0.0313 kg/ha): 0.0
AMBEL rating (AMBEL (Ragweed, Common); 0.0625 kg/ha): 0.0
AMBEL rating (AMBEL (Ragweed, Common); 0.1250 kg/ha): 9.0
AMBEL rating (AMBEL (Ragweed, Common); 0.2500 kg/ha): 9.0
CYPSE herbicidal effect rating (CYPSE (Flatsedge); 0.0313 kg/ha): 0.0
CYPSE herbicidal effect rating (CYPSE (Flatsedge); 0.0625 kg/ha): 0.0
CYPSE herbicidal effect rating (CYPSE (Flatsedge); 0.1250 kg/ha): 5.0
CYPSE herbicidal effect rating (CYPSE (Flatsedge); 0.2500 kg/ha): 9.0
ABUTH herbicidal rating (ABUTH (Velvetleaf) [1]; rate 0.0158 kg/ha): 9.0
ABUTH herbicidal rating (ABUTH (Velvetleaf) [1]; rate 0.0315 kg/ha): 9.0
ABUTH herbicidal rating (ABUTH (Velvetleaf) [1]; rate 0.0630 kg/ha): 9.0
ZEAMX herbicidal rating (ZEAMX (Corn, Field); rate 0.0158 kg/ha): 7.5
ZEAMX herbicidal rating (ZEAMX (Corn, Field); rate 0.0315 kg/ha): 7.5
ZEAMX herbicidal rating (ZEAMX (Corn, Field); rate 0.0630 kg/ha): 8.0
IPOHE rating ([2]; 0.0313 kg/ha): 0.0
IPOHE rating ([2]; 0.0625 kg/ha): 2.0
IPOHE rating ([2]; 0.1250 kg/ha): 9.0
IPOHE rating ([2]; 0.2500 kg/ha): 9.0
Herbicidal rating CYPIR (CYPIR (Rice Flatsedge); Rate 0.0313 kg/ha): 0.0
Herbicidal rating CYPIR (CYPIR (Rice Flatsedge); Rate 0.0625 kg/ha): 0.0
Herbicidal rating CYPIR (CYPIR (Rice Flatsedge); Rate 0.1250 kg/ha): 0.0
Herbicidal rating CYPIR (CYPIR (Rice Flatsedge); Rate 0.2500 kg/ha): 0.0
CASOB rating (CASOB (Sicklepod); 0.0313 kg/ha): 0.0
CASOB rating (CASOB (Sicklepod); 0.0625 kg/ha): 0.0
CASOB rating (CASOB (Sicklepod); 0.1250 kg/ha): 0.0
CASOB rating (CASOB (Sicklepod); 0.2500 kg/ha): 9.0
SETVI herbicidal rating (SETVI (Foxtail, Green); rate 0.0158 kg/ha): 9.0
SETVI herbicidal rating (SETVI (Foxtail, Green); rate 0.0315 kg/ha): 9.0
SETVI herbicidal rating (SETVI (Foxtail, Green); rate 0.0630 kg/ha): 9.0
ECHCG rating (ECHCG (Barnyardgrass); 0.0313 kg/ha): 0.0
ECHCG rating (ECHCG (Barnyardgrass); 0.0625 kg/ha): 0.0
ECHCG rating (ECHCG (Barnyardgrass); 0.1250 kg/ha): 0.0
ECHCG rating (ECHCG (Barnyardgrass); 0.2500 kg/ha): 0.0
Herbicidal rating ECHORC ([3]; Rate 0.0313 kg/ha): 0.0
Herbicidal rating ECHORC ([3]; Rate 0.0625 kg/ha): 3.0
Herbicidal rating ECHORC ([3]; Rate 0.1250 kg/ha): 4.0
Herbicidal rating ECHORC ([3]; Rate 0.2500 kg/ha): 7.0
IPOHE herbicidal rating ([4]; rate 0.0158 kg/ha): 9.0
IPOHE herbicidal rating ([4]; rate 0.0315 kg/ha): 9.0
IPOHE herbicidal rating ([4]; rate 0.0630 kg/ha): 9.0
GLXMAW herbicidal rating ([5]; rate 0.0158 kg/ha): 8.5
GLXMAW herbicidal rating ([5]; rate 0.0315 kg/ha): 9.0
GLXMAW herbicidal rating ([5]; rate 0.0630 kg/ha): 9.0
ABUTH rating (ABUTH (Velvetleaf) [6]; 0.0313 kg/ha): 5.0
ABUTH rating (ABUTH (Velvetleaf) [6]; 0.0625 kg/ha): 9.0
ABUTH rating (ABUTH (Velvetleaf) [6]; 0.1250 kg/ha): 9.0
ABUTH rating (ABUTH (Velvetleaf) [6]; 0.2500 kg/ha): 9.0
ECHORC herbicidal effect rating ([7]; 0.0313 kg/ha): 0.0
ECHORC herbicidal effect rating ([7]; 0.0625 kg/ha): 3.0
ECHORC herbicidal effect rating ([7]; 0.1250 kg/ha): 4.0
ECHORC herbicidal effect rating ([7]; 0.2500 kg/ha): 7.0

C=CCN1C(=O)C(CC(=O)NS(C)(=O)=O)SC1=Nc1cc(-n2c(=O)cc(C(F)(F)F)n(C)c2=O)c(F)cc1Cl (stereo not shown) [Compound 96, 3-Allyl-2-{{2-chloro-5-[3,6-dihydro-3-methyl-2,6-dioxo-4-(trifluoromethyl)-1(2H)-pryimidinyl]-4-fluorophenyl}imino}-N-(methylsulfonyl)-4-oxo-5-thiazolidineacetamide]
AMBEL rating (AMBEL (Ragweed, Common); 0.0313 kg/ha): 0.0
AMBEL rating (AMBEL (Ragweed, Common); 0.0625 kg/ha): 0.0
AMBEL rating (AMBEL (Ragweed, Common); 0.1250 kg/ha): 1.0
AMBEL rating (AMBEL (Ragweed, Common); 0.2500 kg/ha): 4.0
AMBEL rating (AMBEL (Ragweed, Common); 0.5000 kg/ha): 6.0
CYPSE herbicidal effect rating (CYPSE (Flatsedge); 0.0313 kg/ha): 0.0
CYPSE herbicidal effect rating (CYPSE (Flatsedge); 0.0625 kg/ha): 0.0
CYPSE herbicidal effect rating (CYPSE (Flatsedge); 0.1250 kg/ha): 0.0
CYPSE herbicidal effect rating (CYPSE (Flatsedge); 0.2500 kg/ha): 0.0
ABUTH herbicidal rating (ABUTH (Velvetleaf) [1]; rate 0.0156 kg/ha): 1.0
ABUTH herbicidal rating (ABUTH (Velvetleaf) [1]; rate 0.0313 kg/ha): 7.0
ABUTH herbicidal rating (ABUTH (Velvetleaf) [1]; rate 0.0625 kg/ha): 9.0
ABUTH herbicidal rating (ABUTH (Velvetleaf) [1]; rate 0.1250 kg/ha): 9.0
ZEAMX herbicidal rating (ZEAMX (Corn, Field); rate 0.0156 kg/ha): 4.5
ZEAMX herbicidal rating (ZEAMX (Corn, Field); rate 0.0313 kg/ha): 4.5
ZEAMX herbicidal rating (ZEAMX (Corn, Field); rate 0.0625 kg/ha): 4.5
ZEAMX herbicidal rating (ZEAMX (Corn, Field); rate 0.1250 kg/ha): 5.0
IPOHE rating ([2]; 0.0313 kg/ha): 0.0
IPOHE rating ([2]; 0.0625 kg/ha): 0.0
IPOHE rating ([2]; 0.1250 kg/ha): 1.0
IPOHE rating ([2]; 0.2500 kg/ha): 9.0
IPOHE rating ([2]; 0.5000 kg/ha): 9.0
Herbicidal rating CYPIR (CYPIR (Rice Flatsedge); Rate 0.0313 kg/ha): 0.0
Herbicidal rating CYPIR (CYPIR (Rice Flatsedge); Rate 0.0625 kg/ha): 5.0
Herbicidal rating CYPIR (CYPIR (Rice Flatsedge); Rate 0.1250 kg/ha): 6.0
Herbicidal rating CYPIR (CYPIR (Rice Flatsedge); Rate 0.2500 kg/ha): 6.0
CASOB rating (CASOB (Sicklepod); 0.0313 kg/ha): 0.0
CASOB rating (CASOB (Sicklepod); 0.0625 kg/ha): 0.0
CASOB rating (CASOB (Sicklepod); 0.1250 kg/ha): 0.0
CASOB rating (CASOB (Sicklepod); 0.2500 kg/ha): 4.0
CASOB rating (CASOB (Sicklepod); 0.5000 kg/ha): 9.0
SETVI herbicidal rating (SETVI (Foxtail, Green); rate 0.0156 kg/ha): 0.0
SETVI herbicidal rating (SETVI (Foxtail, Green); rate 0.0313 kg/ha): 1.0
SETVI herbicidal rating (SETVI (Foxtail, Green); rate 0.0625 kg/ha): 7.0
SETVI herbicidal rating (SETVI (Foxtail, Green); rate 0.1250 kg/ha): 4.0
ECHCG rating (ECHCG (Barnyardgrass); 0.0313 kg/ha): 0.0
ECHCG rating (ECHCG (Barnyardgrass); 0.0625 kg/ha): 0.0
ECHCG rating (ECHCG (Barnyardgrass); 0.1250 kg/ha): 0.0
ECHCG rating (ECHCG (Barnyardgrass); 0.2500 kg/ha): 1.0
ECHCG rating (ECHCG (Barnyardgrass); 0.5000 kg/ha): 1.0
Herbicidal rating ECHORC ([3]; Rate 0.0313 kg/ha): 0.0
Herbicidal rating ECHORC ([3]; Rate 0.0625 kg/ha): 0.0
Herbicidal rating ECHORC ([3]; Rate 0.1250 kg/ha): 0.0
Herbicidal rating ECHORC ([3]; Rate 0.2500 kg/ha): 3.0
IPOHE herbicidal rating ([4]; rate 0.0156 kg/ha): 6.0
IPOHE herbicidal rating ([4]; rate 0.0313 kg/ha): 9.0
IPOHE herbicidal rating ([4]; rate 0.0625 kg/ha): 9.0
IPOHE herbicidal rating ([4]; rate 0.1250 kg/ha): 9.0
GLXMAW herbicidal rating ([5]; rate 0.0156 kg/ha): 4.0
GLXMAW herbicidal rating ([5]; rate 0.0313 kg/ha): 4.5
GLXMAW herbicidal rating ([5]; rate 0.0625 kg/ha): 4.0
GLXMAW herbicidal rating ([5]; rate 0.1250 kg/ha): 3.0
ABUTH rating (ABUTH (Velvetleaf) [6]; 0.0313 kg/ha): 1.0
ABUTH rating (ABUTH (Velvetleaf) [6]; 0.0625 kg/ha): 9.0
ABUTH rating (ABUTH (Velvetleaf) [6]; 0.1250 kg/ha): 9.0
ABUTH rating (ABUTH (Velvetleaf) [6]; 0.2500 kg/ha): 9.0
ABUTH rating (ABUTH (Velvetleaf) [6]; 0.5000 kg/ha): 9.0
ECHORC herbicidal effect rating ([7]; 0.0313 kg/ha): 0.0
ECHORC herbicidal effect rating ([7]; 0.0625 kg/ha): 0.0
ECHORC herbicidal effect rating ([7]; 0.1250 kg/ha): 0.0
ECHORC herbicidal effect rating ([7]; 0.2500 kg/ha): 3.0
